Laboratory results reported in patent US4895841A (priority 1987, dated 1990).
Structures can show the parent of a compound that is named as a salt. Where two headings read alike, the source gives them in different places.

Target: T1, acetylcholinesterase (Mus musculus, UniProt P21836)
T1 construct: A mouse brain homogenate was used as an acetylcholinesterase source; from tissue; host or cells: mouse brain homogenate
Experiment: biochemical
Assay type: biochemical

[1] = read-out: Inhibitory activity on AChE IC50
[2] = in vitro, mouse brain homogenate, Table 10, read-out: Inhibitory activity on AChE IC50
[3] = read-out: AChE inhibitory activity IC50

T1 sequence (P21836 32-614): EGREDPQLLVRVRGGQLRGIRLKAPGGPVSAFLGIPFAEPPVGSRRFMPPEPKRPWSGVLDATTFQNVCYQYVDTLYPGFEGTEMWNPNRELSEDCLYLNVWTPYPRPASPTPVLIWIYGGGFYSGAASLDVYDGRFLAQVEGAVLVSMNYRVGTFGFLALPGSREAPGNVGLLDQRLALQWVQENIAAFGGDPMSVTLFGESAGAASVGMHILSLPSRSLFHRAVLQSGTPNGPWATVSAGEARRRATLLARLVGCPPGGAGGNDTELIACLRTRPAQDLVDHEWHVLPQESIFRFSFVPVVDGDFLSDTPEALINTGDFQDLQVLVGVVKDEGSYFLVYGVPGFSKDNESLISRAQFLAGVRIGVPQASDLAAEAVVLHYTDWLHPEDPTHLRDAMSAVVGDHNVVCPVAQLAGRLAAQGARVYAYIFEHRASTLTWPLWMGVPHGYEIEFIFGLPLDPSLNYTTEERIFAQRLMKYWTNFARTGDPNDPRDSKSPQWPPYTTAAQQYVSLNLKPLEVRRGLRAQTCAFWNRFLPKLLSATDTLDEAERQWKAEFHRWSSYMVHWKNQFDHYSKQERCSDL

Work on `COc1cc2c(cc1OC)C(=O)C(CC1CCN(Cc3ccccc3[N+](=O)[O-])CC1)C2` (centres unmarked) [Example 230] yielded an IC50 [1] of 0.16 µM.
`COc1cc2c(cc1OC)C(=O)C(CC1CCN(Cc3ccc(C)cc3)CC1)C2` (centres unmarked) [Example 229] showed an IC50 [2] of 0.04 µM.
`Cc1cccc2c1CC(=CC1CCN(Cc3ccccc3)CC1)C2=O` [Example 213] showed an IC50 of 0.05 µM.
In the case of `COc1cc2c(cc1OC)C(=O)C(=CCCCC1CCN(Cc3ccccc3)CC1)C2` [Example 222], the IC50 is reported as 0.011 µM.
With `COc1cc2c(cc1OC)C(=O)C(=CC=CC1CCN(Cc3ccccc3)CC1)C2` [Example 224, 1-benzyl-4-((5,6-dimethoxy-1-oxoindanon)-2-yl)propenylpiperidine] the IC50 was 0.003 µM.
Compound `O=C(NCC1CCN(Cc2ccccc2)C1)c1ccccc1` (centres unmarked) [Example 21, N-[3'-(1'-Benzylpyrrolidine)methyl]benzamide hydrochloride] has an IC50 of 50 µM.
`COc1cc(OC)cc(N(CCC2CCN(Cc3ccccc3)CC2)C(=O)C=Cc2ccc(F)cc2)c1` [Example 18, N-(3'5'-Dimethoxyphenyl)-N-[4'-(1'--benzylpiperidyl)-ethyl]-4-fluorocinnamamide hydrichloride] gave an IC50 of 0.68 µM.
For `COc1cc2c(cc1OC)C(=O)C(CCCCC1CCN(Cc3ccccc3)CC1)C2` (centres unmarked) [Example 204], the IC50 [1] was 0.035 µM.
`CC(=O)N(CCC1CCN(Cc2ccccc2)CC1)c1ccccc1` [Example 17, N-[4'-(1'-Benzylpiperidyl)ethyl]acetanilide] showed an IC50 [3] of 0.052 µM.
Work on `O=C1c2cc(F)ccc2CC1CC1CCN(Cc2ccccc2)CC1` (centres unmarked) [Example 193] yielded an IC50 of 0.2 µM.
`O=C1c2ccccc2CCN1CCC1CCN(Cc2ccccc2)CC1` [Example 54] showed an IC50 [3] of 1 µM.
With `COc1ccc(CN2CCC(CC3Cc4cc(OC)c(OC)cc4C3=O)CC2)cc1OC` (centres unmarked) [Example 243] the IC50 was 4 µM.
`COc1cccc(CN2CCC(CC3Cc4cc(OC)c(OC)cc4C3=O)CC2)c1` (centres unmarked) [Example 235] gave an IC50 of 0.22 µM.
For `COc1cc2c(cc1OC)C(=O)C(CC1CCNCC1)C2` (centres unmarked) [Example 179, 4-[(5,6-Dimethoxy-1-indanon)-2-yl]methylpiperidine hydrochloride], the IC50 [2] was 5.4 µM.
`COc1cc2c(cc1OC)C(=O)C(CC1CCN(Cc3ccc4ccccc4c3)CC1)C2` (centres unmarked) [Example 242] showed an IC50 of 2.9 µM.
With `O=C(NCCC1CCN(Cc2ccccc2)CC1)c1ccoc1` [Example 24, N-[4'-(1'-Benzylpiperidine)ethyl]-3-furancarboxylic amide hydrochloride] the IC50 was 1.1 µM.
Compound `O=C1Nc2ccccc2CN1CCC1CCN(Cc2ccccc2)CC1` [Example 8] has an IC50 [3] of 0.013 µM.
Compound `COc1cccc2c1CCCC(=O)N2CCC1CCN(Cc2ccccc2)CC1` [Example 65] has an IC50 of 0.0016 µM.
`COc1ccc(C(=O)CCCC2CCN(Cc3ccccc3)CC2)cc1` [Example 23, 4-[4'-N-Benzyl)piperidyl]-p-methoxybutyrophenone hydrochloride] gave an IC50 [3] of 0.072 µM.
Compound `COc1cc2c(cc1OC)C(=O)C(CC1CCN(Cc3cccc(O)c3)CC1)C2` (centres unmarked) [Example 233] has an IC50 of 0.046 µM.
For `Cc1cccc2c1CC(CC1CCN(Cc3ccccc3)CC1)C2=O` (centres unmarked) [Example 195], the IC50 was 0.0071 µM.
For `COc1cc2c(cc1OCc1ccccc1)CC(=CC1CCN(Cc3ccccc3)CC1)C2=O` [Example 215], the IC50 was 0.0042 µM.
`COc1cc2c(cc1OC)C(=O)C(CC1CCN(Cc3cccc(F)c3)CC1)C2` (centres unmarked) [Example 180, 1-(3-Fluorobenzyl)-4-[(5,6-dimethoxy-1-indanon)-2-yl]methylpiperidine hydrochloride] was tested, and the IC50 [1] was 0.001 µM.
`O=C1C(=CC2CCN(Cc3ccccc3)CC2)CCCc2ccccc21` [Example 219] gave an IC50 of 19 µM.
Work on `COc1cc2c(cc1OC)C(=O)C(CCCCCC1CCN(Cc3ccccc3)CC1)C2` (centres unmarked) [Example 205] yielded an IC50 [1] of 0.014 µM.
For `O=C1c2ccccc2Oc2ccccc2N1CCC1CCN(Cc2ccccc2)CC1` [Example 176], the IC50 was 0.004 µM.
With `COc1cc2c(cc1OC)C(=O)N(CCC1CCN(Cc3ccccc3)CC1)C2` [Example 6, 2-[4'-Benzylpiperidine)ethyl]-2,3-dihydro-5,6-dimethoxyoxypyrrolo[3,4-]benzene hydrochloride] the IC50 was 0.017 µM.
`O=C1C(=CC2CCN(Cc3ccccc3)CC2)CCc2ccccc21` [Example 218] gave an IC50 of 20 µM.
In the case of `O=C(CCC1CCN(Cc2ccccc2)CC1)Nc1ccccc1` [Example 20, 4-(1-Benzylpiperidine)propanailide hydrochloride], the IC50 [3] is reported as 0.54 µM.
Work on `O=C(CCC1CCN(Cc2ccccc2)CC1)Nc1ccncc1` [Example 48] yielded an IC50 of 0.019 µM.
`CN1CC(=O)N(CCC2CCN(Cc3ccccc3)CC2)c2ccccc2C1` [Example 9, 1-[4'-(1'-Benzylpiperidine)ethyl-1,2,3,4-tetrahydro-4-methyl-5H-[1,4]-benzodiazepin-2-one dihydrochloride] showed an IC50 of 0.051 µM.
For `COc1cc2c(cc1O)CC(CC1CCN(Cc3ccccc3)CC1)C2=O` (centres unmarked) [Example 197], the IC50 was 0.38 µM.
In the case of `COc1cccc2c1CC(=CC1CCN(Cc3ccccc3)CC1)C2=O` [Example 207], the IC50 is reported as 0.049 µM.
In the case of `COc1cc2c(cc1OC)C(=O)C(CC1CCN(Cc3ccc(O)cc3)CC1)C2` (centres unmarked) [Example 234], the IC50 is reported as 0.0018 µM.
`O=C1C(=CC2CCN(Cc3ccccc3)CC2)Cc2cc3c(cc21)OCO3` [Example 217] showed an IC50 of 0.14 µM.
With `CN1c2ccccc2C(=O)N(CCC2CCN(Cc3ccccc3)CC2)c2ccccc21` [Example 12, 10-[4'-(1'-Benzylpiperidine)ethyl]-10,11-dihydro-5-methyl-5H-dibenzo[b,e][1,4]diazepin-11-one hydrochloride] the IC50 was 0.04 µM.
`COc1cc2c(cc1OC)C(=O)C(CC1CC[N+]([O-])(Cc3ccccc3)CC1)C2` (centres unmarked) [Example 226] showed an IC50 of 0.0049 µM.
For `COc1cc2c(cc1OC(C)C)CC(=CC1CCN(Cc3ccccc3)CC1)C2=O` [Example 221], the IC50 was 0.033 µM.
With `Cc1ccc2c(c1)C(=O)C(=CC1CCN(Cc3ccccc3)CC1)C2` [Example 212] the IC50 was 0.5 µM.
Work on `O=C1C(=CC2CCN(Cc3ccccc3)CC2)Cc2ccc(F)cc21` [Example 211] yielded an IC50 of 2 µM.
For `O=C1CCCc2ccccc2N1CCC1CCN(Cc2ccccc2)CC1` [Example 10, 1-[4'-(1'-Benzylpiperidine)ethyl]-1,2,3,4-tetrahydro-5H-1-benzazepin-2-one hydrochloride], the IC50 was 0.009 µM.
`O=C1c2cc3c(cc2CC1CC1CCN(Cc2ccccc2)CC1)OCO3` (centres unmarked) [Example 199] showed an IC50 of 0.023 µM.
With `O=C(CCCC1CCN(Cc2ccccc2)CC1)c1ccncc1` [Example 45] the IC50 was 0.36 µM.
`COc1cc2c(cc1OC)C(=O)C(CC1CCN(Cc3cccc4ccccc34)CC1)C2` (centres unmarked) [Example 241] was tested, and the IC50 was 0.22 µM.
For `O=C1c2cccnc2CN1CCC1CCN(Cc2ccccc2)CC1` [Example 5, 2-[4'-(1'-Benzylpiperidine)ethyl]-2,3-dihydro-1-oxypyrrolo[3,4-b]pyridine dihydrochloride], the IC50 was 0.1 µM.
`CCOc1cc2c(cc1OCC)C(=O)C(CC1CCN(Cc3ccccc3)CC1)C2` (centres unmarked) [Example 198] was tested, and the IC50 was 0.0054 µM.
`COc1cc2c(cc1O)C(=O)C(=CC1CCN(Cc3ccccc3)CC1)C2` [Example 214] was tested, and the IC50 was 0.0084 µM.
`COc1cc2c(cc1OC)CC(CC1CCN(Cc3ccccc3)CC1)=C2` [Example 185, 1-Benzyl-4-[(5,6-dimethoxyinden)-2-yl]methylpiperidine hydrochloride] was tested, and the IC50 was 0.00082 µM.
With `O=C(c1cnccn1)N(CCC1CCN(Cc2ccccc2)CC1)c1ccccc1` [Example 95] the IC50 was 0.085 µM.
Work on `COc1cc2c(cc1OC)C(=O)C(CC1CCN(Cc3cccc(OCc4ccccc4)c3)CC1)C2` (centres unmarked) [Example 237] yielded an IC50 of 2.6 µM.
With `CC(=CC1CCN(Cc2ccccc2)CC1)C(=O)c1ccccc1` [Example 220] the IC50 was 11 µM.
For `O=C1c2ccccc2CCc2ccccc2N1CCC1CCN(Cc2ccccc2)CC1` [Example 11, N-[4-(1'-Benzylpiperidyl)ethyl]-5,6,11,12-tetrahydrodibenzo[b,f]azocin-6-one hydrochloride], the IC50 [3] was 0.068 µM.
`O=C(NCCC1CCN(Cc2ccco2)CC1)c1ccccc1` [Example 124] was tested, and the IC50 was 2.8 µM.
For `COc1ccc2c(c1)CCCC(=O)N2CCC1CCN(Cc2ccccc2)CC1` [Example 62], the IC50 was 0.0075 µM.
Compound `COc1cc2c(cc1OC)C(=O)C(CN1CCC(Cc3ccccc3)CC1)C2` (centres unmarked) [Example 225] has an IC50 [1] of 0.48 µM.
Compound `COc1cc2c(cc1OC(C)C)CC(CC1CCN(Cc3ccccc3)CC1)C2=O` (centres unmarked) [Example 203] has an IC50 of 0.009 µM.
Compound `CCOC(=O)c1nccnc1C(=O)NCCC1CCN(Cc2ccccc2)CC1` [Example 72] has an IC50 of 0.02 µM.
`COc1cc2c(cc1OC)C(=O)C(C(C1CCN(Cc3ccccc3)CC1)C1Cc3cc(OC)c(OC)cc3C1=O)C2` (centres unmarked) [Example 249] gave an IC50 of 0.62 µM.
`CCOc1cc2c(cc1OCC)C(=O)C(=CC1CCN(Cc3ccccc3)CC1)C2` [Example 216] showed an IC50 of 0.017 µM.
`COc1cc2c(cc1OC)C(=O)C(=CCCCCC1CCN(Cc3ccccc3)CC1)C2` [Example 223] was tested, and the IC50 was 0.0054 µM.
For `O=C(c1ccc(F)cc1)N(CCC1CCN(Cc2ccccc2)CC1)c1ccccc1` [Example 89], the IC50 [3] was 0.018 µM.
In the case of `CC(CC1CCN(Cc2ccccc2)CC1)C(=O)c1ccccc1` (centres unmarked) [Example 202], the IC50 is reported as 1.2 µM.
For `CN(CCC1CCN(Cc2ccccc2)CC1)C(=O)c1ccco1` [Example 120], the IC50 was 0.19 µM.
In the case of `COc1cc2c(c(OC)c1)C(=O)C(CC1CCN(Cc3ccccc3)CC1)C2` (centres unmarked) [Example 31], the IC50 [3] is reported as 0.025 µM.
Work on `COc1cc2c(cc1OC)C(=O)C(CC1CCN(Cc3cc(OC)c(OC)c(OC)c3)CC1)C2` (centres unmarked) [Example 244] yielded an IC50 of 4.9 µM.
For `COc1cc2c(cc1OC)C(=O)C(CC1CCN(Cc3cccnc3)CC1)C2` (centres unmarked) [Example 238], the IC50 was 0.072 µM.
In the case of `Cc1ccc2c(c1)C(=O)C(CC1CCN(Cc3ccccc3)CC1)C2` (centres unmarked) [Example 194], the IC50 is reported as 0.069 µM.
For `O=C1C(=CC2CCN(Cc3ccccc3)CC2)C(=O)c2ccccc21` [Example 184, 1-Benzyl-4-[(1,3-indanedion)-2-ylidenyl]methylpiperidine], the IC50 was greater than 5 µM.
Work on `COc1cc2c(cc1O)C(=O)C(CC1CCN(Cc3ccccc3)CC1)C2` (centres unmarked) [Example 196] yielded an IC50 of 0.0013 µM.
`O=C1c2ccccc2NCN1CCC1CCN(Cc2ccccc2)CC1` [Example 52] showed an IC50 [3] of 0.8 µM.
`COc1cc2c(c(OC)c1OC)C(=O)C(CC1CCN(Cc3ccccc3)CC1)C2` (centres unmarked) [Example 192] was tested, and the IC50 [2] was 0.013 µM.
